# Patent publication US9339458B2, “Use of vaginal insulin sensitizing agents” (ITF RESEARCH PHARMA, S.L.U., priority 2009, dated 2016)
# Experiments:
# [1] = test system: non-insulin dependent model for polycystic ovary syndrome (PCOS) induced by dehydroepiandrosterone (DHEA) in rats; test: Histological assessment of ovaries (no. of atretic follicles), DHEA-induced PCOS model in rats; format: in vivo, Sprague-Dawley rats
# Protocol: (§1) The study objective was to assess the effect of metformin in a non-insulin dependent model for polycystic ovary syndrome (PCOS) induced by dehydroepiandrosterone (DHEA) in rats.
# (§2) The formulations to be tested were: • Gels with Metformin at a concentration of 2 mg/mL (FT-147), 20 mg/mL (FT-148) and 200 mg/mL (FT-149). • Gel without Metformin (Placebo; FT-150).
# (§3) Female 2-3 weeks-old Sprague-Dawley rats were used.
# (§4) Four experimental groups with 8 animals each were used in the study: • Group A: Control=Placebo+DHEA • Group B: Dose 1 Trial Substance (0.016 mg/animal)+DHEA • Group C: Dose 2 Trial Substance (0.16 mg/animal)+DHEA • Group D: Dose 3 Trial Substance (1.6 mg/animal)+DHEA
# (§5) Each animal's dose was calculated based on the concentration of each formulation and the administration volume: • Dose 1: formulation of 2 mg/mL with administration of 8 μl/animal=0.016 mg/animal • Dose 2: formulation of 20 mg/mL with administration of 8 μl/animal=0.16 mg/animal • Dose 3: formulation of 200 mg/mL with administration of 8 μl/animal=1.6 mg/animal
# The trial substance (doses of 0.016, 0.16 and 1.6 mg/animal) and the control substance were administered intravaginally as an aqueous gel at a volume of 8 μl/animal.
# The DHEA solution was prepared in a sesame seed oil prior to administration and was injected subcutaneously in a skin fold in the posterior thoracic area (dorsal) at a volume of 0.2 mL. […]
# [2] = test system: non-insulin dependent model for polycystic ovary syndrome (PCOS) induced by dehydroepiandrosterone (DHEA) in rats; test: Concentration of testosterone in plasma, DHEA-induced PCOS model in rats; format: in vivo, Sprague-Dawley rats
# Protocol: as §1, §2, §3, §4
# as §5, with “μl/animal=1.6 mg/animal […]” for “μl/animal=1.6 mg/animal”
# Plasma was obtained from each blood sample by centrifugation at 5000 g for 5 minutes, which was frozen for later assessment (quantitative determinations) of testosterone levels by rat-specific commercial immunoassay kits (EIA).
# Testosterone concentrations in the plasma samples from all animals were determined at the end of the study (Day 15).
smiles,measurement,setting,value
"CN(C)C(=N)NC(=N)N [metformin, N,N-dimethylimidodicarbonimidic diamide]",Number of atretic follicles versus control group,"[1]; intermediate dose, intravaginal",significant reduction
same,Number of atretic follicles in the polycystic ovaries,[1]; vaginal administration,a decrease
same,Testosterone plasma levels versus control group,"[2]; high dose, intravaginal",very significant reduction
same,Plasma levels of testosterone,[2]; vaginal administration,significantly decreases
